Measured values taken from US20150218212A1, “FLUORINATED EPOXYKETONE-BASED TETRAPEPTIDE COMPOUNDS AND USES THEREOF AS PROTEASOME INHIBITORS” (FLUORINOV PHARMA INC., priority 2012, published 2015).

Experiments:
OCI-AML-2 = test: Cell viability (MTS) assay, OCI-AML-2; assay type: cell-based; details: Homo sapiens, OCI-AML2; OCI-AML-2, MTS, 72 hours, mean ± standard deviation
Method: Human multiple myeloma cell lines 8226, H929, JJN3, KMH11, KMS11, KMS18, LP1, MM1S, OPM2 and U266 were grown in Iscove modified Dulbecco's medium (IMDM). Human leukemia cell lines K562, OCI-AML2 and U937 were cultured in RPMI-1640 medium. Primary peripheral blood mononuclear cells were isolated from multiple myeloma patients by Ficoll density gradient centrifugation and bone marrow aspirates were obtained from multiple myeloma patients at the Princess Margaret Cancer Centre of the University Health Network (UHN; Toronto, ON, Canada). Primary cells were cultured in IMDM. The collection and use of human tissue for this study was approved by the UHN institutional ethics review board. All cell culture media were obtained from the Ontario Cancer Institute Tissue Culture Media Facility (Toronto, ON, Canada) and were supplemented with 10% fetal calf serum, […] (Hyclone, Logan, Utah). All cells were grown in a humidified incubator at 37° C. with 5% CO2.
Cellular viability was primarily assessed by 3-(4,5-dimethylthiazol-2-yl)-5-(3-carboxymethoxyphenyl)-2-(4-sulfophenyl)-2H-tetrazolium (MTS) assay according to the manufacturer's instructions (Promega; Madison, Wis.). Cells were first seeded at a density of 10,000 cells per well in tissue culture-treated 96-well plates. Two hours after seeding, cells were treated with compounds for 72 hours at concentrations as indicated. As a control, cells were treated with DMSO alone in every assay plate. Following treatment and the MTS assay, cell viability was independently confirmed by reading the optical density (O.D.) at 490 nm and by exclusion of trypan blue stain (Invitrogen; Burlington, ON, Canada). The viability of primary mononuclear cells was determined by staining with Annexin V.
Table 8 summarizes the data of representative compounds of Formula I for cell viability and CT-L proteasome activity with OCI-AML-2 and KMS-11 cell lines.

DU-145 = test: NCI screening panel, DU-145 (Prostate Cancer); assay type: cell-based, human
Method: (§1) Representative compounds of Formula I were screened using the National Cancer Institute (NCI) screening panel, which consists of a panel of human tumor cell lines, representing leukemia, melanoma, and cancers of the lung, colon, ovary, breast, prostate and renal system.
(§2) After 24 h, two plates of each cell line are fixed in situ with TCA, to represent a measurement of the cell population for each cell line at the time of drug addition (Tz). Experimental drugs are solubilised in dimethyl sulfoxide at 400-fold the desired final maximum test concentration and stored frozen prior to use. At the time of drug addition, an aliquot of frozen concentrate is thawed and diluted to twice the desired final maximum test concentration with complete medium containing 50 μg/mL gentamicin. Additional four, 10-fold or ½ log serial dilutions are made to provide a total of five drug concentrations plus control. Aliquots of 100 μl of these different drug dilutions are added to the appropriate microtiter wells already containing 100 μl of medium, resulting in the required final drug concentrations.
(§3) Following drug addition, the plates are incubated for an additional 48 h at 37° C., 5% CO2, 95% air, and 100% relative humidity. For adherent cells, the assay is terminated by the addition of cold TCA (trichloroacetic acid). Cells are fixed in situ by the gentle addition of 50 μl of cold 50% (w/v) TCA (final concentration, 10% TCA) and incubated for 60 minutes at 4° C. The supernatant is discarded, and the plates are washed five times with tap water and air dried. Sulforhodamine B (SRB) solution (100 μl) at 0.4% (w/v) in 1% acetic acid is added to each well, and plates are incubated for 10 minutes at room temperature. After staining, unbound dye is removed by washing five times with 1% acetic acid and the plates are air dried. Bound stain is subsequently solubilised with 10 mM trizma base, and the absorbance is read on an automated plate reader at a wavelength of 515 nm. For suspension cells, the methodology is the same except that the assay is terminated by fixing settled cells at the bottom of the wells by gently adding 50 μl of 80% TCA (final concentration, 16% TCA). Using the seven absorbance measurements [time zero, (Tz), control growth, (C), and test growth in the presence of drug at the five concentration levels (Ti)], the percentage growth is calculated at each of the drug concentrations levels. Percentage growth inhibition is calculated as: [(Ti−Tz)/(C−Tz)]×100 for concentrations for which Ti>/=Tz and [(Ti−Tz)/Tz]×100 for concentrations for which Ti<Tz.
(§4) Three dose response parameters are calculated for each experimental agent. Growth inhibition of 50% (GI50) is calculated from [(Ti−Tz)/(C−Tz)]×100=50, which is the drug concentration resulting in a 50% reduction in the net protein increase (as measured by SRB staining) in control cells during the drug incubation. The drug concentration resulting in total growth inhibition (TGI) is calculated from Ti=Tz. The LC50 (concentration of drug resulting in a 50% reduction in the measured protein at the end of the drug treatment as compared to that at the beginning) indicating a net loss of cells following treatment is calculated from [(Ti−Tz)/Tz]×100=−50. Values are calculated for each of these three parameters if the level of activity is reached. However, if the effect is not reached or is exceeded, the value for that parameter is expressed as greater or less than the maximum or minimum concentration tested.

SR = test: NCI screening panel, SR (Leukemia); assay type: cell-based, human
Method: as §1, §2, §3, §4

U251 = test: NCI screening panel, U251 (CNS Cancer); assay type: cell-based, human
Method: as §1, §2, §3, §4

NCI-H460 = test: NCI screening panel, NCI-H460 (Non-Small Cell Lung Cancer); assay type: cell-based, human
Method: as §1, §2, §3, §4

ACHN = test: NCI screening panel, ACHN (Renal Cancer); assay type: cell-based, human
Method: as §1, §2, §3, §4

SN12C = test: NCI screening panel, SN12C (Renal Cancer); assay type: cell-based, human
Method: as §1, §2, §3, §4

HT29 = test: NCI screening panel, HT29 (Colon Cancer); assay type: cell-based, human
Method: as §1, §2, §3, §4

RXF 393 = test: NCI screening panel, RXF 393 (Renal Cancer); assay type: cell-based, human
Method: as §1, §2, §3, §4

786-0 = test: NCI screening panel, 786-0 (Renal Cancer); assay type: cell-based, human
Method: as §1, §2, §3, §4

MDA-MB-231/ATCC = test: NCI screening panel, MDA-MB-231/ATCC (Breast Cancer); assay type: cell-based, human
Method: as §1, §2, §3, §4

SMILES | IC50 (OCI-AML-2) [nM] | Log10GI50 (DU-145) | Log10LC50 (DU-145) | Log10TGI50 (DU-145) | Log10GI50 (SR) | Log10LC50 (SR) | Log10TGI50 (SR) | Log10GI50 (U251) | Log10LC50 (U251) | Log10TGI50 (U251) | Log10GI50 (NCI-H460) | Log10LC50 (NCI-H460) | Log10TGI50 (NCI-H460) | Log10GI50 (ACHN) | Log10LC50 (ACHN) | Log10TGI50 (ACHN) | Log10GI50 (SN12C) | Log10LC50 (SN12C) | Log10TGI50 (SN12C) | Log10GI50 (HT29) | other results
CC(C)C[C@H](NC(=O)[C@H](COC(F)F)NC(=O)CN1CCOCC1)C(=O)N[C@@H](Cc1ccccc1)C(=O)N[C@@H](Cc1ccccc1)C(=O)[C@@]1(C)CO1 [Example 3, (2S)-N-[(1S)-1-benzyl-2-[[(1S)-1-benzyl-2-[(2R)-2-methyloxiran-2-yl]-2-oxo-ethyl]amino]-2-oxo-ethyl]-2-[[(2S)-3-(difluoromethoxy)-2-[(2-morpholinoacetyl)-amino]propanoyl]amino]-4-methyl-pentan-amide] | 16.3 ± 5.96 | <−8.00 | −4.48 | −5.79 | <−8.00 | >−4.00 | >−4.00 | <−8.00 | −5.14 | −6.79 | −7.43 | −5.64 | −6.77 | −7.13 | >−4.00 | >−4.00 | −7.68 | −6.24 | −6.85 | <−8.00 | Log10LC50 (HT29): −4.44; Log10TGI50 (HT29): −6.25; Log10GI50 (RXF 393): −7.64; Log10LC50 (RXF 393): −6.58; Log10TGI50 (RXF 393): −7.18; Log10GI50 (786-0): −7.22; Log10LC50 (786-0): −4.14; Log10TGI50 (786-0): −5.77; Log10GI50 (MDA-MB-231/ATCC): <−8.00; Log10LC50 (MDA-MB-231/ATCC): −4.81; Log10TGI50 (MDA-MB-231/ATCC): −7.08
CC(C)C[C@H](NC(=O)[C@H](COC(F)F)NC(=O)CN1CCOCC1)C(=O)N[C@@H](COC(F)F)C(=O)N[C@@H](Cc1ccccc1)C(=O)[C@@]1(C)CO1 [Example 4, (2S)-N-[(1S)-2-[[(1S)-1-benzyl-2-[(2R)-2-methyloxiran-2-yl]-2-oxo-ethyl]amino]-1-(difluoromethoxymethyl)-2-oxo-ethyl]-2-[[(2S)-3-(difluoromethoxy)-2-[(2-mor-pholinoacetyl)amino]propanoyl]amino]-4 methyl-pentanamide] | 54.7 ± 10.8 | −7.19 | >−4.00 | −4.91 | −7.66 | >−4.00 | >−4.00 | −7.44 | −4.62 | −6.48 | −6.84 | −4.04 | −6.19 | −6.32 | >−4.00 | >−4.00 | −7.20 | −4.79 | −6.47 | −7.50 | Log10LC50 (HT29): >−4.00; Log10TGI50 (HT29): −5.63; Log10GI50 (RXF 393): −6.83; Log10LC50 (RXF 393): −6.05; Log10TGI50 (RXF 393): −6.44; Log10GI50 (786-0): −6.44; Log10LC50 (786-0): −4.27; Log10TGI50 (786-0): −5.58; Log10GI50 (MDA-MB-231/ATCC): −7.45; Log10LC50 (MDA-MB-231/ATCC): −4.14; Log10TGI50 (MDA-MB-231/ATCC): −6.37
